Laboratory results published in a compilation of properties of binary mixtures (doi:10.1021/je300622r).

Assay: xn = mol fraction of the nth substance listed
Settings: 101 kPa

A viscosity (283.15 K, x2 = 0.0023) of 242.3 mPa·s, a viscosity (283.15 K, x2 = 0.1225) of 171.3 mPa·s and a viscosity (283.15 K, x2 = 0.427) of 62.49 mPa·s were found for `CCOS(=O)(=O)[O-].CC[n+]1ccn(C)c1` + O in this work. The viscosity (283.15 K, x2 = 0.798) was 14.52 mPa·s, the viscosity (283.15 K, x2 = 0.8983) was 6.801 mPa·s and the viscosity (293.15 K, x2 = 0.1966) was 81.3 mPa·s. The viscosity (293.15 K, x2 = 0.427) was 40.03 mPa·s, the viscosity (293.15 K, x2 = 0.6124) was 21.82 mPa·s and the viscosity (293.15 K, x2 = 0.798) was 10.01 mPa·s. The viscosity (293.15 K, x2 = 0.8983) was 4.853 mPa·s, the viscosity (303.15 K, x2 = 0.0023) was 81 mPa·s and the viscosity (303.15 K, x2 = 0.1225) was 62.11 mPa·s. For the same compound, the viscosity (303.15 K, x2 = 0.1966) was 52.09 mPa·s, the viscosity (303.15 K, x2 = 0.427) was 27.26 mPa·s and the viscosity (303.15 K, x2 = 0.6124) was 15.38 mPa·s. The viscosity (303.15 K, x2 = 0.798) was 7.24 mPa·s, the viscosity (303.15 K, x2 = 0.8983) was 3.618 mPa·s and the viscosity (313.15 K, x2 = 0.0023) was 52.62 mPa·s. It also gave a viscosity (313.15 K, x2 = 0.1225) of 41.51 mPa·s, a viscosity (313.15 K, x2 = 0.1966) of 35.42 mPa·s and a viscosity (313.15 K, x2 = 0.427) of 19.53 mPa·s. The viscosity (313.15 K, x2 = 0.6124) was 11.33 mPa·s, the viscosity (313.15 K, x2 = 0.798) was 5.453 mPa·s and the viscosity (313.15 K, x2 = 0.8983) was 2.793 mPa·s. The viscosity (323.15 K, x2 = 0.0023) was 36.24 mPa·s, the viscosity (323.15 K, x2 = 0.1225) was 29.17 mPa·s and the viscosity (323.15 K, x2 = 0.1966) was 25.3 mPa·s. For the same compound, the viscosity (323.15 K, x2 = 0.6124) was 8.663 mPa·s, the viscosity (323.15 K, x2 = 0.798) was 4.246 mPa·s and the viscosity (323.15 K, x2 = 0.8983) was 2.221 mPa·s. The viscosity (333.15 K, x2 = 0.0023) was 26.16 mPa·s, the viscosity (333.15 K, x2 = 0.1225) was 21.46 mPa·s and the viscosity (333.15 K, x2 = 0.1966) was 18.81 mPa·s. It also gave a viscosity (333.15 K, x2 = 0.427) of 11.24 mPa·s, a viscosity (333.15 K, x2 = 0.6124) of 6.824 mPa·s and a viscosity (333.15 K, x2 = 0.798) of 3.402 mPa·s. For the same compound, the viscosity (333.15 K, x2 = 0.8983) was 1.813 mPa·s, the viscosity (343.15 K, x2 = 0.1225) was 16.37 mPa·s and the viscosity (343.15 K, x2 = 0.6124) was 5.518 mPa·s. For the same compound, the viscosity (343.15 K, x2 = 0.798) was 2.791 mPa·s and the viscosity (343.15 K, x2 = 0.8983) was 1.518 mPa·s.

A viscosity (278.15 K, x2 = 0.0023) of 246.3 mPa·s, a viscosity (278.15 K, x2 = 0.0887) of 226 mPa·s and a viscosity (278.15 K, x2 = 0.2235) of 164.6 mPa·s were found for `CC[n+]1ccn(C)c1.COS(=O)(=O)[O-]` + O in this work. The viscosity (278.15 K, x2 = 0.4163) was 81.88 mPa·s, the viscosity (278.15 K, x2 = 0.6106) was 36.75 mPa·s and the viscosity (278.15 K, x2 = 0.7999) was 14.47 mPa·s. For the same compound, the viscosity (278.15 K, x2 = 0.8948) was 6.791 mPa·s, the viscosity (288.15 K, x2 = 0.0887) was 129.2 mPa·s and the viscosity (288.15 K, x2 = 0.2235) was 97.7 mPa·s. The viscosity (288.15 K, x2 = 0.4163) was 51.53 mPa·s, the viscosity (288.15 K, x2 = 0.6106) was 24.28 mPa·s and the viscosity (288.15 K, x2 = 0.7999) was 9.971 mPa·s. It also gave a viscosity (298.15 K, x2 = 0.2235) of 62.41 mPa·s, a viscosity (298.15 K, x2 = 0.4163) of 34.54 mPa·s and a viscosity (298.15 K, x2 = 0.6106) of 16.97 mPa·s. It also gave a viscosity (298.15 K, x2 = 0.7999) of 7.21 mPa·s, a viscosity (298.15 K, x2 = 0.8948) of 3.635 mPa·s and a viscosity (308.15 K, x2 = 0.0023) of 54.77 mPa·s. For the same compound, the viscosity (308.15 K, x2 = 0.0887) was 53.07 mPa·s, the viscosity (308.15 K, x2 = 0.6106) was 12.4 mPa·s and the viscosity (308.15 K, x2 = 0.7999) was 5.427 mPa·s. The viscosity (318.15 K, x2 = 0.0887) was 37.01 mPa·s, the viscosity (318.15 K, x2 = 0.2235) was 30.1 mPa·s and the viscosity (318.15 K, x2 = 0.4163) was 17.94 mPa·s. It also gave a viscosity (318.15 K, x2 = 0.6106) of 9.404 mPa·s, a viscosity (318.15 K, x2 = 0.7999) of 4.222 mPa·s and a viscosity (318.15 K, x2 = 0.8948) of 2.247 mPa·s. For the same compound, the viscosity (328.15 K, x2 = 0.0887) was 26.98 mPa·s, the viscosity (328.15 K, x2 = 0.2235) was 22.43 mPa·s and the viscosity (328.15 K, x2 = 0.4163) was 13.72 mPa·s. For the same compound, the viscosity (328.15 K, x2 = 0.6106) was 7.362 mPa·s, the viscosity (328.15 K, x2 = 0.7999) was 3.378 mPa·s and the viscosity (328.15 K, x2 = 0.8948) was 1.836 mPa·s. For the same compound, the viscosity (338.15 K, x2 = 0.0023) was 20.53 mPa·s, the viscosity (338.15 K, x2 = 0.0887) was 20.42 mPa·s and the viscosity (338.15 K, x2 = 0.2235) was 17.93 mPa·s. It also gave a viscosity (338.15 K, x2 = 0.7999) of 2.767 mPa·s and a viscosity (338.15 K, x2 = 0.8948) of 1.534 mPa·s.
